Results published in US5677420A, “Phospholipase c-inhibiting peptides” (Kyowa Hakko Kogyo Co., Ltd., priority 1995, dated 1997).
≈ marks a conversion by molar mass, not a printed value. Square brackets hold non-standard residues; d marks the D form. Peptide text beside a SMILES is read from it. Aun = NCCCCCCCCCCC(=O)O

Key:
[1] = tested on: Klebsiella pneumoniae ATCC 10031; assay: Antibacterial activity, agar dilution method; assay type: cell-based; settings: medium pH 7.0
Experimental: (§1) The antibacterial activity was determined by the agar dilution method using a medium (pH 7.0) which comprises 3 g/l Bacto-tryptone (Difco Laboratories), 1 g/l meat extract, 1 g/l glucose and 16 g/l agar.

[2] = tested on: Proteus vulgaris ATCC 6897; assay: Antibacterial activity, agar dilution method; assay type: cell-based; settings: medium pH 7.0
Experimental: as §1

[3] = tested on: Pseudomonas aeruginosa Bin H No. 1; assay: Antibacterial activity, agar dilution method; assay type: cell-based; settings: medium pH 7.0
Experimental: as §1

[4] = tested on: Bacillus subtilis No. 10707; assay: Antibacterial activity, agar dilution method; assay type: cell-based; settings: medium pH 7.0
Experimental: as §1

PLC-γ1 = molecular target: T1, PLC-γ1 (Bos taurus, UniProt P08487); assay: PLC-inhibiting activity (release of inositol phosphate from [3H]PIP2); assay type: biochemical; settings: Concentration 123 μM; PLC-γ1 from bovine thymus, 37° C., 10 minutes
T1 construct: A sample of PLC-γ1 was prepared from bovine thymus according to the method described in Y. Honma et al; from tissue; host or cells: bovine thymus
T1 sequence (P08487 1-1291): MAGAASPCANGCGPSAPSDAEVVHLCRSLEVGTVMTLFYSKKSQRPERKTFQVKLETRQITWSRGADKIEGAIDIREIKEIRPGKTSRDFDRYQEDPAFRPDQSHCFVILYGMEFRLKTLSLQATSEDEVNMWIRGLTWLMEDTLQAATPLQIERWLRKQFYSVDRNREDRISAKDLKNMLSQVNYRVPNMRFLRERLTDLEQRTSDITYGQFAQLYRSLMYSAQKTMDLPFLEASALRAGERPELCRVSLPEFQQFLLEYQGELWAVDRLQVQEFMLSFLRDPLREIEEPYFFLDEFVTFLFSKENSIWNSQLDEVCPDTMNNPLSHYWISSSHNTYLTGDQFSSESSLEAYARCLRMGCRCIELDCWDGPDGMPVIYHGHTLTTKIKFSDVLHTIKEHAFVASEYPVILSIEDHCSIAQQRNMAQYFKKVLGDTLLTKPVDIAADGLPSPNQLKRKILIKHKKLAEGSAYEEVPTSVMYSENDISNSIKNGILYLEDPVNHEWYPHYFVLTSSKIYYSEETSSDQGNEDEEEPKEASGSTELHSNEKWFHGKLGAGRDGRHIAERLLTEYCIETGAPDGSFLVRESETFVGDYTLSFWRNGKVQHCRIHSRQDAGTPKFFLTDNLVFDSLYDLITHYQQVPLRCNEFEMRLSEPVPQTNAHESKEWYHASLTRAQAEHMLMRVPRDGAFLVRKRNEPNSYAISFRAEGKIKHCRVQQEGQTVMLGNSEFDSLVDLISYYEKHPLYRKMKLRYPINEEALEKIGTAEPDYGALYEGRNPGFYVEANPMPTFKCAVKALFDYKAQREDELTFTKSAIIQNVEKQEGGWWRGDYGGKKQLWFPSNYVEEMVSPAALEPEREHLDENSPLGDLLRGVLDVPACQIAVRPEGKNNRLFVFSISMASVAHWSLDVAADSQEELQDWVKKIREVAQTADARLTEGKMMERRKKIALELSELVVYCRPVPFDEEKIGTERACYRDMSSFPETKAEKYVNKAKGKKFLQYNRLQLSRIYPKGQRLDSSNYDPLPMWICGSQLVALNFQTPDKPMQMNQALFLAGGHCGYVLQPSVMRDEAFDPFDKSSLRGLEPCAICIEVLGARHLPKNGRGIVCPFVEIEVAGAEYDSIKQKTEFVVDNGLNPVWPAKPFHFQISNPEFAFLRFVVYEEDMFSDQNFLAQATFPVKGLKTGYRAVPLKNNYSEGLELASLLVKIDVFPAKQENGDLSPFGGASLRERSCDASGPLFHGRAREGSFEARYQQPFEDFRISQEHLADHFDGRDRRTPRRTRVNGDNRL
Experimental: PLC-inhibiting activity A sample of PLC-γ1 was prepared from bovine thymus according to the method described in Y. Honma et al., Biochem. J., 269, 13 (1990). A solution having the composition shown in Table 2 below was prepared on ice and was heated to 37° C. to start reaction. After incubation for 10 minutes, 2 ml of a chloroform/methanol mixture (2:1, v/v) was added thereto to stop the reaction. The resulting inositol phosphate was extracted with 0.5 ml of 1N hydrochloric acid. The extract was separated into two liquid phases by centrifugation (2000×g, 3 minutes), and the amount of ^3 H contained in the supernatant (0.7 ml) was measured with a scintillation counter. […] (a) 2-(N-Morpholino)ethanesulfonic acid (b) The peptides and their concentrations in aqueous solutions provided for the test are shown in Table 3. […] The inhibition rate (X) was calculated according to the following equation: X (%)=(A-C)/(B-C)×100 where A is the obtained value of specific radioactivity, B is the value of specific radioactivity obtained when the same amount of water was added instead of the aqueous solution of the test peptide, and C is the value of specific radioactivity obtained when the same amount of water was added instead of the sample and the aqueous solution of the test peptide.

KMS-4 cells = assay: Cell growth-inhibiting activity (BrdU incorporation, cell growth detection kit); assay type: cell-based; settings: Concentration 1 μM, culturing with peptide for 17 hours
Experimental: Cell growth-inhibiting activity The cell growth-inhibiting activity was determined using a cell growth detection kit (Amersham) in the following manner. KMS-4 cells [M. Nanba et al, International Journal of Cancer, 32, 697 (1983)]were suspended in DMEM medium (Nissui Pharmaceutical Co., Ltd.) containing 10% fetal calf serum at a density of 1-2×10^4 cells/ml, and 1 ml of the cell suspension was put into each well of a 24-well plate (Corning Inc.). The cells were cultured in a CO2 incubator (37° C., 5% CO2) for 2 days. Then, the medium was replaced with a fresh DMEM medium containing 10% fetal calf serum, and the test peptide was added thereto, followed by culturing for 17 hours. […] The number of cells which incorporated BrdU and the total number of cells within one field of vision of a microscope (approximately 200 cells) were determined, and the proportion (%) of stained cells per field of vision was calculated. […] The cell growth-inhibiting activity was calculated in the following manner. That is, the cell growth inhibition rate was calculated according to the following equation: X (%)=(1-B/A)×100 where A is the growth activity when no peptide was added, and B is the growth activity when the test peptide was added.

Row | Compound | MIC (μg/ml) KP [1] [µg/mL] | MIC (μg/ml) PV [2] [µg/mL] | MIC (μg/ml) PA [3] [µg/mL] | MIC (μg/ml) BS [4] [µg/mL] | Inhibition rate (%) (PLC-γ1) | Inhibition rate (%) (cell growth) (KMS-4 cells)
1 | CSCC[C@H](NC(=O)[C@H](CCCCN)NC(=O)[C@H](CCCNC(=N)N)NC(=O)[C@H](Cc1ccc(O)cc1)NC(=O)[C@H](CC(C)C)NC(C)=O)C(=O)N[C@@H](CCCNC(=N)N)C(=O)N[C@@H](CC(C)C)C(=O)N[C@@H](CCCNC(=N)N)C(=O)N[C@@H](Cc1ccc(O)cc1)C(=O)N1CCC[C@H]1C(=O)N[C@H](C(=O)NCCCCCCCCCCC(N)=O)C(C)C [Compound (I-6), Ac-Leu-Tyr-Arg-Lys-Met-Arg-Leu-Arg-Tyr-Pro-Val-Aud-NH2] (Ac-LYRKMRLRYPV[Aun]-NH2) | 43 (≈ 25 µM) |  |  |  |  | 
2 | Ac-Leu-Tyr-Arg-Lys-Met-Arg-Leu-Arg-Tyr-Pro-Val-Abu-NH2 (Ac-LYRKMRLRYPVX-NH2; not fully specified (residue 12); printed as $CH_3CO$—Leu—Tyr—Arg—Lys—Met—Arg—Leu—Arg—Tyr—Pro—Val—NH—$(CH_2)_3CONH_2$) [Compound (I-1)] |  | 83 | 167 | 167 | 85 | 10
